Data: US20200146973A1, “Pharmaceutical Composition for Oral Delivery of Hydrophobic Small Molecule Drug and Hydrophilic Small Molecule Drug Concurrently” (National Tsing Hua University, priority 2016, published 2020)
Like-named read-outs stand apart in the source and are kept apart here.

How the values were obtained:
[1] = Pharmacokinetics in rats after I.V. injection or oral administration, plasma drug concentration quantified by HPLC
Protocol: (§1) The pharmacokinetics of the pharmaceutical composition of the present disclosure is analyzed in this experiment. There are two groups, the rats are oral administered of the pharmaceutical composition of the present disclosure with 12 mg/kg of paclitaxel and 12 mg/kg of gemcitabine as the oral group, and the rats are tail intravenous injected at a dose of 12 mg/kg of paclitaxel and 12 mg/kg of gemcitabine as the I.V. group. After administration, blood of rat is collected from the tail vein at 0.5, 1, 2, 3, 4, 6, 8, 10, 12, 24, 48 hours, and plasma of rat is obtained after centrifugation. After treatment, the drug concentration is quantified by HPLC.
(§2) For quantifying gemcitabine (hereafter GEM), tetrahydrouridine (10 mM, 10 μL) is added, and 2 mL of an organic mixture (15% isopropanol in ethyl acetate) is added into 100 μL of the plasma. After mixing, the supernatant is centrifuged, dried, and then dissolved in the mobile phase to perform HPLC. Mobile phase is 0.1 M ammonium acetate:acetonitrile=98:2. For quantifying paclitaxel (hereafter PTX), 400 μL of acetonitrile is added into 100μL of plasma. After mixing well, the sample is centrifuged to remove the supernatant. Then 100 μL of ZnSO4 (10% w/v aqueous solution) is added. After mixing well, the sample is centrifuged to remove the supernatant. Then 1 mL of ethyl acetate is added. After mixing well, the sample is centrifuged to remove the supernatant, and then dried. Then the sample is dissolved in methanol to perform HPLC. Mobile phase is H2O:acetonitrile=90:10.

[2] = Lewis, rat, in vivo
Protocol: as §1, §2

in vivo = settings: Lewis, rat, 12 mg/kg
Protocol: as §1, §2

[3] = Ex vivo IVIS biodistribution of fluorescent model drugs in major organs; parameters: species or system rats; settings: FIG. 14
Protocol: Further, ex vivo imaging of the distributions of different drugs in the major organs that are isolated from the test rats was conducted using an in vivo imaging system (IVIS). The rats are oral administrated a dose of 12 mg/kg of DiO and 12 mg/kg of Rhodamine B as an experiment group, and tail intravenous injected the same dose of DiO and Rhodamine B as an I.V. control group. In addition, the rats are intraperitoneally injected cycloheximide 1 hour before oral administration to block lymphatic absorption as a control group. The animals are sacrificed 6 hours after the feeding and 1 hour after the tail intravenous injection. At the time of maximum accumulation, the rats are sacrificed to remove the main organs (heart, lung, liver, spleen, pancreas and kidney) and the distribution of the fluorescent dye is observed by IVIS.

[4] = In vivo transport route by immunofluorescence staining (small intestine, MLNs, tumor; CLSM); parameters: species or system Lewis rats; settings: oral capsule, DiO and Rhodamine B 12 mg/kg each, 6 hours after administration, FIG. 11
Excerpt: In addition to the comprehensive in vitro characterization of the pharmaceutical composition of the present disclosure, determination of the biodistribution of these lipid oil drops following in vivo administration is crucial because they act at the site of accumulation. To trace the pharmaceutical composition of the present disclosure in rats, DiO and Rhodamine B are used as fluorescent model drug for hydrophobic small molecule drug and hydrophilic small molecule drug, respectively.
The animal studies involved Lewis rats with masses of approximately 250 g and are performed in compliance with the “Guide for the Care and Use of Laboratory Animals”, which was prepared by the Institute of Laboratory Animal Resources, National Research Council, and published by the National Academy Press in 1996. The Institutional Animal Care and Use Committee of National Tsing Hua University approved all studies. To prepare the enteric-coated gelatin capsules for use in this experiment, hard gelatin capsules (size 9; Torpac Inc., Fairfield, N.J., U.S.A.) are manually filled with a powdered mixture of Rhodamine B (1 mg), DiO (1 mg), capric acid (18 mg), citric acid (6 mg), and sodium bicarbonate (5 mg), as per the manufacturer's instructions. […]

RAW 264.7 cells = test: Uptake of emulsion containing DiO and Rhodamine B by RAW 264.7 cells (CLSM); format: cell-based; settings: 3 hours of incubation, FIG. 12
Protocol: To understand better the route of drug delivery, RAW 264.7 cells are added the prepared emulsion containing DiO and Rhodamine B and then cultured for 3 hours. The unabsorbed emulsion is washed with PBS, and then the cells are fixed with formalin, stained, and observed with the CLSM. In addition, the rats are oral administrated with the enteric-coated gelatin capsules that contained the pharmaceutical composition of the present disclosure (the dose of DiO and Rhodamine B is 12 mg/kg, respectively). The animals are sacrificed 6 hours after oral administration, the MLNs are retrieved from euthanized rats, and the tissues are fixed in formalin for 4 hours at room temperature. Then the tissue was cut to size and embedded in OCT gel for frozen section and subsequent staining. The sections are finally examined by CLSM.

[5] = Lewis, rat, plasma, iv, 12 mg/kg
[6] = Lewis, rat, plasma, po, 12 mg/kg
[7] = Oral group, 12 mg/kg each, rat plasma

Question: What does the source list for `Nc1ccn([C@@H]2O[C@H](CO)[C@@H](O)C2(F)F)c(=O)n1` [GEM, gemcitabine]?
Answer: AUC [1, 5]: 41100 ng·h/mL; Cmax [1, 5]: 16700 ± 4380 ng/mL; MRT [1, 5]: 3.28 h; clearance [1, 5]: 4 mL/min/kg; half-life [1, 5]: 2.36 h; bioavailability ([1]; Lewis, rat, plasma, oral, 12 mg/kg): 56.8%; AUC [1, 6]: 23400 ng·h/mL; Cmax [1, 6]: 3620 ± 1380 ng/mL; MRT [1, 6]: 5.61 h; half-life [1, 6]: 6.13 h; CL [1, 7]: 7.17 mL/min/kg; Tmaxz [1, 7]: 4.00 h; time at which the concentration reaches the highest peak, post-administration ([1]; Oral group, FIG. 15B): 4 h; time post-administration after which the concentration cannot be detected ([2]; iv): 6 h; AUMC ([2]; iv, 12 mg/kg): 135.11 μg h^2/mL; time post-administration within which the concentration still can be detected ([2]; po): ≤ 12 h; AUMC ([2]; po, 12 mg/kg): 131.19 μg h^2/mL

Question: For `CC(=O)O[C@H]1C(=O)[C@@]2(C)[C@H]([C@H](OC(=O)c3ccccc3)[C@]3(O)C[C@H](OC(=O)[C@H](O)[C@@H](NC(=O)c4ccccc4)c4ccccc4)C(C)=C1C3(C)C)[C@]1(OC(C)=O)CO[C@@H]1C[C@@H]2O` [PTX, paclitaxel], which “time post-administration after which the concentration cannot be detected” value ([2]; iv) is on record?
Answer: The value was 6 h.

Question: And the AUMC ([2]; iv, 12 mg/kg)?
Answer: Its AUMC is 39.21 μg h^2/mL.

Question: And the “time at which the concentration reaches the highest peak, post-administration” value ([2]; po)?
Answer: Its value is 6 h.

Question: What about the “time post-administration within which the concentration still can be detected” value ([2]; po) of the same compound?
Answer: The value was no more than 12 h.

Question: And the AUMC ([2]; po, 12 mg/kg)?
Answer: Its AUMC is 52.32 μg h^2/mL.

Question: What about the CL ([2]; po, 12 mg/kg) of the same compound?
Answer: The CL was 23 mL/min/kg.

Question: What about the Tmaxz ([2]; po, 12 mg/kg) of the same compound?
Answer: The Tmaxz was 8.00 h.

Question: What about the bioavailability (in vivo) of the same compound?
Answer: Its bioavailability is 59.2%.

Question: What about the AUC (in vivo; iv) of the same compound?
Answer: The AUC was 23600 ng·h/mL.

Question: What about the Cmax (in vivo; iv) of the same compound?
Answer: The Cmax was 20000 ± 5010 ng/mL.

Question: What about the MRT (in vivo; iv) of the same compound?
Answer: The MRT was 1.66 h.

Question: And the clearance (in vivo; iv)?
Answer: Its clearance is 7 mL/min/kg.

Question: And the half-life (in vivo; iv)?
Answer: Its half-life is 10.2 h.

Question: What about the AUC (in vivo; po) of the same compound?
Answer: Its AUC is 7250 ng·h/mL.

Question: What about the Cmax (in vivo; po) of the same compound?
Answer: Its Cmax is 1010 ± 970 ng/mL.

Question: What about the MRT (in vivo; po) of the same compound?
Answer: The MRT was 7.22 h.

Question: And the half-life (in vivo; po)?
Answer: Its half-life is 14.4 h.

Question: With `CCN(CC)c1ccc2c(-c3ccccc3C(=O)O)c3ccc(=[N+](CC)CC)cc-3oc2c1.[Cl-]` [Rhodamine B] as the compound, how does the “organ accumulation (ex vivo IVIS)” value ([3]; I.V. control group, tail intravenous injection 12 mg/kg each, 1 hour) read?
Answer: Its value is “accumulated in liver, pancreas and kidneys”.

Question: And the “organ accumulation (ex vivo IVIS)” value ([3]; control group, cycloheximide intraperitoneally 1 hour before oral administration, 6 hours)?
Answer: The value was “accumulated in liver, pancreas and the lateral surfaces of intestinal tract”.

Question: What about the “organ accumulation (ex vivo IVIS)” value ([3]; experiment group, oral 12 mg/kg each, 6 hours) of the same compound?
Answer: Its value is “accumulated in liver, pancreas and the lateral surfaces of intestinal tract”.

Question: And the “location of fluorescent signals (immunofluorescence staining)” value [4]?
Answer: Its value is “located on the lateral surfaces of the villi, Peyer's patches and tumor”.

Question: Which “uptake into cells (colocalization of DiO and DAPI fluorescence)” value (RAW 264.7 cells) does the source give for `CCCCCCCCCCCCCCCCCCN1/C(=C\C=C\c2oc3ccccc3[n+]2CCCCCCCCCCCCCCCCCC)Oc2ccccc21.[O-][Cl+3]([O-])([O-])[O-]` [DiO] here?
Answer: Its value is “can be uptake into RAW 264.7 cells”.
